This note sets out measurements from paper PMC12405493, “Selective ubiquitination of drug-like small molecules by the ubiquitin ligase HUWE1” (Nature Communications, 2025).

In one test the test system is HEK293T cells. The experiment in a line: Quantitative total proteomics. As to conditions: 15 μM, 24 h vs DMSO. In kind it is cell-based, human. Here is the method:
For total proteomics and Ub remnant profiling (diGly proteomics), HEK293T cells were treated with 15 μM BI8626 (in DMSO) or an equivalent volume of DMSO for 24 h, washed with ice-cold 1 x DPBS, and lysed in 9 M urea, 50 mM Tris (pH 8.0) and 150 mM NaCl, supplemented with protease inhibitor (Roche) and 50 µM PR-619, and processed essentially as described. Briefly, the cells were lysed by sonication, non-solubilized material removed by centrifugation, and the protein concentration was determined with a Pierce BCA Protein Assay Kit. 5 mg was used for further MS processing and four biological replicates per condition.
After reduction with 5 mM DTT and alkylation with 10 mM chloroacetamide, followed by quenching with 5 mM DTT, lysates were digested with 5 ng/μl LysC protease (Wako) at RT for 1 h. Subsequent digestion of peptides with trypsin (Promega) at a 1: 200 enzyme: peptide ratio was performed. Desalted and lyophilized peptides were resuspended in 1.5 ml IAP buffer (50 mM MOPS (pH 7.2), 10 mM Na2HPO4, 50 mM NaCl) and centrifuged to remove insoluble material. […]
Data collection was controlled by Tune v.4.0.4084.22 (Thermo Scientific) and Xcalibur v.2.4 (Thermo Fisher Scientific). Raw data files from quadruplicate samples were analyzed using MaxQuant v.1.6.0.1 (Max Planck Institute of Biochemistry)[56],[57]. […]

In test [1] the target is T1, vinylthioether-linked HUWE1^HECT-Ub complex (Homo sapiens, UniProt Q7Z6Z7).
T1 construct: The preparation of the vinylthioether-linked HUWE1^HECT-Ub complex was also previously described; made in house; host or cells: bacteria (components)
In words: Isothermal titration calorimetry (ITC) with HUWE1^HECT~Ub proxy. In kind it is binding. As to conditions: 25 °C. Here is the method: ITC was performed with an ITC200 calorimeter (MicroCal) at 25 °C. The proteins were dialyzed into 20 mM HEPES (pH 7.5), 150 mM NaCl, and 1 mM β-mercaptoethanol (β-ME) overnight. 600 μM HUWE1^HECT or HUWE1^HECT-Ub were applied to the cell and a 10-fold molar excess of BI8626 to the syringe (and vice versa). The reference cell was filled with buffer. Titration experiments included 1 injection of 1.5 μL, followed by 15 injections of 2.4 μL in 3-s intervals, with 150-s spacings between individual injections. The reference power was set to 12 μcal s^−1 and the stirring speed to 270 rpm. To control for instrument functionality, 5 mM CaCl2 were titrated into 0.4 mM EDTA in 10 mM MES (pH 5.6). Data were plotted with OriginPro v.2020b (OriginLab).
(In general: Isothermal titration calorimetry measures the heat released or taken up as one component is titrated into another.)

T1 sequence (Q7Z6Z7 4038-4374 limits assumed, other chains not shown): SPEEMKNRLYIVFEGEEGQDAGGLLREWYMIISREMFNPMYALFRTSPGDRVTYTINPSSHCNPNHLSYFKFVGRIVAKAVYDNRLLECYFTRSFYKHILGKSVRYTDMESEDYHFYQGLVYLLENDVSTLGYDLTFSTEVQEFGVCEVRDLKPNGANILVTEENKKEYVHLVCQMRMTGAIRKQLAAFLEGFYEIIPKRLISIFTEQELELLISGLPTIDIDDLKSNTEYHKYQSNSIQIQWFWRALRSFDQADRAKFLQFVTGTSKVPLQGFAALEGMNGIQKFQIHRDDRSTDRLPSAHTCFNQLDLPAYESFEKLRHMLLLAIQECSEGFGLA

`NCc1cccc(CNc2ncnc3c(N4CCN(Cc5ccccc5)CC4)ncnc23)c1` [BI8626]: in the test on HEK293T cells, the Total proteome changes result is “widespread compound-induced changes”. In addition, the “Interaction with the HUWE1^HECT~Ub proxy by ITC” value in test [1] is given as “No binding was detected”.
